Literature values, collected in publication PMC12580772, “A First-in-Human Study of ATM Inhibitor Lartesertib as Monotherapy in Patients with Advanced Solid Tumors” (Clinical Cancer Research, 2025).

Tested on: patient-derived xenograft models of triple-negative breast cancer
Design: method as in PMID 37079339
Conditions: single-agent gartisertib; cited from earlier work

SMILES: Nc1nn2cc(F)cnc2c1C(=O)Nc1cncc(F)c1N1CCC(C(=O)N2CCN(C3COC3)CC2)CC1 [gartisertib, reference compound]
- Tumor control rate: 27%
